Data set [1] addresses Imp1 beta-lactamase (class B) (Serratia marcescens, UniProt P52699). Format: biochemical. To be noted: nitrocefin reporter.
The test system of data set [2] is AmpCHD beta-lactamase (class C). The data set can be described thus: Screening of beta-lactamases by competition, nitrocefin as reporter substrate. The class given is biochemical.
In data set [3] the target is P99 beta-lactamase (class C) (Enterobacter cloacae, UniProt P05364). Format: biochemical. To be noted: nitrocefin reporter.
Data set [4] concerns the target beta-lactamase class D OXA-48 (Klebsiella pneumoniae, UniProt Q6XEC0). Format: biochemical. The following applies: for Accuracy <> (average) / [Meropenem] <> (average): average of 5 replicates. The source says:
The specificity (or selectivity) of the method according to an embodiment of the invention is defined as the ability of the method to measure the concentration of a carbapenem antibiotic (such as meropenem) in presence of an excess of another beta-lactam antibiotic (second beta-lactam) currently used in ICUs (see Table 4).
To determine the specificity of the method illustrating the invention for carbapenem antibiotics, in particular meropenem, versus other beta-lactam antibiotics, stock-solutions of second beta-lactam antibiotics were prepared in water.
An excess of a second beta-lactam concentration of up to 10 times the concentration of meropenem was used.

Data set [5] concerns Imp4 beta-lactamase (class B). As to the kind of experiment: Screening of beta-lactamases by competition, nitrocefin as reporter substrate. Format: biochemical.
Data set [6] concerns the target CTXM15 beta-lactamase (class A) (Escherichia coli, UniProt Q9EXV5). Format: biochemical. The following applies: nitrocefin reporter.
In data set [7] the test system is Per2 beta-lactamase (class A). The data set can be described thus: Screening of beta-lactamases by competition, nitrocefin as reporter substrate. Format: biochemical.
The target of data set [8] is Oxa48 beta-lactamase (class D) (Klebsiella pneumoniae, UniProt Q6XEC0). The class given is biochemical. The following applies: nitrocefin reporter.
The nature of data set [9]: Activity loss of the beta-lactamase in 1 h. Format: physicochemical. To be noted: enzyme activity.
[10] abbreviates: Meropenem 1.2 mg/L, second β-lactam 10.0 mg/L (8.4 times excess).
[11] abbreviates: Meropenem 20.0 mg/L, second β-lactam 200.0 mg/L (10 times excess).

Read-outs that look alike come from different tables or passages of the source.

Chain of P99 beta-lactamase (class C) (P05364 21-381): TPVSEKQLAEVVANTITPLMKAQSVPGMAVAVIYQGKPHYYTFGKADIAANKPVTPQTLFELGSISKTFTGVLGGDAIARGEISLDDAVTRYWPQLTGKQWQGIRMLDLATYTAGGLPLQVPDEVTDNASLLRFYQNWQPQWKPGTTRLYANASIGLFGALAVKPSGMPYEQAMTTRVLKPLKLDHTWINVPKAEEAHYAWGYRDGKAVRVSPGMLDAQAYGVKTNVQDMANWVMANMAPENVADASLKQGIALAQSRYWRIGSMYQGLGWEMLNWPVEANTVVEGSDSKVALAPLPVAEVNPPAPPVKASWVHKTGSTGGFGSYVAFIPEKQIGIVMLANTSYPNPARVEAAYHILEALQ
Chain of Imp1 beta-lactamase (class B) (P52699 19-246 limits assumed): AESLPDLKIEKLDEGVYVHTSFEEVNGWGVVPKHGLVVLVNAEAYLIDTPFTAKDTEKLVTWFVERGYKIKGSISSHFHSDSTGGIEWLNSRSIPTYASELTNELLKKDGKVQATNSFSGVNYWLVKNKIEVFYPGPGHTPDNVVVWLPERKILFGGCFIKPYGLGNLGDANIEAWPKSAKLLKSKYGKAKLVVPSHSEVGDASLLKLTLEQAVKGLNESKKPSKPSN
Chain of CTXM15 beta-lactamase (class A) (Q9EXV5 29-291 limits assumed): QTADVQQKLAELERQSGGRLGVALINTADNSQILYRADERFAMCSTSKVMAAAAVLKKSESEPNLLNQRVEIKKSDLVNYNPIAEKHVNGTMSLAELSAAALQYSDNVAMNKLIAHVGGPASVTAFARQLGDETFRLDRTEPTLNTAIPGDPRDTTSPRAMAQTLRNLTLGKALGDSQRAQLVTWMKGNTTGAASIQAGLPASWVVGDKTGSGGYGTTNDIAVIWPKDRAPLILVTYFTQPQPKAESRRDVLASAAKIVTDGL

With `CO/N=C(\C(=O)N[C@@H]1C(=O)N2C(C(=O)O)=C(COC(N)=O)CS[C@H]12)c1ccco1` [Zinacef ®], the “hydrolysis rate symbol, (Vmax/V0)-1” value in data set [1] is recorded as “+ (0.1-1)”. Moreover, the “hydrolysis rate symbol, (Vmax/V0)-1” value in [2] is “+ (0.1-1)”. In data set [3], the “hydrolysis rate symbol, (Vmax/V0)-1” value is reported as “++++ (>100)”. Besides, in [4] (setting [10]), the “Accuracy <> (average)” value worked out at 104%, the “[Meropenem] <> (average)” value was determined as 1.2 mg/L, the “Accuracy Replicate 1” value amounted to 108% and the “[Meropenem] Replicate 1” value is listed as 1.3 mg/L. Also, in data set [4] (setting [10]), the “Accuracy Replicate 2” value is recorded as 97%, the “[Meropenem] Replicate 2” value came to 1.1 mg/L, the “Accuracy Replicate 3” value was 100% and the “[Meropenem] Replicate 3” value was 1.2 mg/L. In [4] (setting [10]), the “Accuracy Replicate 4” value worked out at 104%, the “[Meropenem] Replicate 4” value was found to be 1.2 mg/L, the “Accuracy Replicate 5” value is 111% and the “[Meropenem] Replicate 5” value was determined as 1.3 mg/L. For the same molecule, in data set [4] (setting [11]), the “Accuracy <> (average)” value was found to be 98%, the “[Meropenem] <> (average)” value is given as 21.9 mg/L, the “Accuracy Replicate 1” value stood at 98% and the “[Meropenem] Replicate 1” value worked out at 21.8 mg/L. Moreover, in data set [4] (setting [11]), the “Accuracy Replicate 2” value was determined as 98%, the “[Meropenem] Replicate 2” value was 21.9 mg/L, the “Accuracy Replicate 3” value is reported as 95% and the “[Meropenem] Replicate 3” value came to 21.2 mg/L. In data set [4] (setting [11]), the “Accuracy Replicate 4” value is 101%, the “[Meropenem] Replicate 4” value was found to be 22.4 mg/L, the “Accuracy Replicate 5” value was 99% and the “[Meropenem] Replicate 5” value was 22.0 mg/L.

With `CO/N=C(\C(=O)N[C@@H]1C(=O)N2C(C(=O)O)=C(COC(C)=O)CS[C@H]12)c1csc(N)n1` [Cefotaxim ® Sandoz], the “hydrolysis rate symbol, (Vmax/V0)-1” value in [1] is on record as “+ (0.1-1)”. In addition, the “hydrolysis rate symbol, (Vmax/V0)-1” value in [5] was “+ (0.1-1)”. Further, in [2], the “hydrolysis rate symbol, (Vmax/V0)-1” value is given as “+ (0.1-1)”. Besides, the “hydrolysis rate symbol, (Vmax/V0)-1” value in data set [3] is listed as “++++ (>100)”. Also, in data set [4] (setting [10]), the “Accuracy <> (average)” value is 111%, the “[Meropenem] <> (average)” value is listed as 1.3 mg/L, the “Accuracy Replicate 1” value is on record as 109% and the “[Meropenem] Replicate 1” value stood at 1.3 mg/L. In [4] (setting [10]), the “Accuracy Replicate 2” value is 116%, the “[Meropenem] Replicate 2” value stood at 1.3 mg/L, the “Accuracy Replicate 3” value amounted to 107% and the “[Meropenem] Replicate 3” value was determined as 1.2 mg/L. Further, in data set [4] (setting [10]), the “Accuracy Replicate 4” value is listed as 110%, the “[Meropenem] Replicate 4” value is 1.3 mg/L, the “Accuracy Replicate 5” value was determined as 115% and the “[Meropenem] Replicate 5” value is listed as 1.3 mg/L. In addition, in data set [4] (setting [11]), the “Accuracy <> (average)” value is 92%, the “[Meropenem] <> (average)” value was 20.5 mg/L, the “Accuracy Replicate 1” value is 93% and the “[Meropenem] Replicate 1” value amounted to 20.8 mg/L. In addition, in data set [4] (setting [11]), the “Accuracy Replicate 2” value is 94%, the “[Meropenem] Replicate 2” value came out at 20.9 mg/L, the “Accuracy Replicate 3” value came out at 91% and the “[Meropenem] Replicate 3” value is 20.2 mg/L. In [4] (setting [11]), the “Accuracy Replicate 4” value is given as 91%, the “[Meropenem] Replicate 4” value is 20.2 mg/L, the “Accuracy Replicate 5” value came out at 91% and the “[Meropenem] Replicate 5” value is recorded as 20.2 mg/L.

Turning to `CC1(C)S[C@@H]2[C@H](NC(=O)[C@H](C(=O)O)c3ccsc3)C(=O)N2[C@H]1C(=O)O` [Ticarpen ®], the “hydrolysis rate symbol, (Vmax/V0)-1” value in data set [6] was “++ (1-10)”. Besides, the “hydrolysis rate symbol, (Vmax/V0)-1” value in [7] is listed as “++ (1-10)”. The “hydrolysis rate symbol, (Vmax/V0)-1” value in data set [2] is recorded as “+ (0.1-1)”. The “hydrolysis rate symbol, (Vmax/V0)-1” value in data set [3] is “++++ (>100)”. Also, the “hydrolysis rate symbol, (Vmax/V0)-1” value in [8] is “+ (0.1-1)”. In data set [4] (setting [10]), the “Accuracy <> (average)” value is listed as 112%, the “[Meropenem] <> (average)” value came to 1.3 mg/L, the “Accuracy Replicate 1” value turned out to be 121% and the “[Meropenem] Replicate 1” value is reported as 1.4 mg/L. In data set [4] (setting [10]), the “Accuracy Replicate 2” value was 122%, the “[Meropenem] Replicate 2” value amounted to 1.4 mg/L, the “Accuracy Replicate 3” value was 102% and the “[Meropenem] Replicate 3” value was 1.2 mg/L. Also, in data set [4] (setting [10]), the “Accuracy Replicate 4” value is listed as 111%, the “[Meropenem] Replicate 4” value stood at 1.3 mg/L, the “Accuracy Replicate 5” value came out at 105% and the “[Meropenem] Replicate 5” value is 1.2 mg/L. Further, in data set [4] (setting [11]), the “Accuracy <> (average)” value was determined as 101%, the “[Meropenem] <> (average)” value turned out to be 22.6 mg/L, the “Accuracy Replicate 1” value stood at 102% and the “[Meropenem] Replicate 1” value came to 22.7 mg/L. Besides, in data set [4] (setting [11]), the “Accuracy Replicate 2” value came to 105%, the “[Meropenem] Replicate 2” value is on record as 23.4 mg/L, the “Accuracy Replicate 3” value is 104% and the “[Meropenem] Replicate 3” value is on record as 23.1 mg/L. For the same molecule, in data set [4] (setting [11]), the “Accuracy Replicate 4” value is given as 98%, the “[Meropenem] Replicate 4” value is 21.9 mg/L, the “Accuracy Replicate 5” value worked out at 98% and the “[Meropenem] Replicate 5” value is given as 21.9 mg/L.

In the case of `CC1(C)S[C@@H]2[C@H](NC(=O)[C@H](N)c3ccccc3)C(=O)N2[C@H]1C(=O)O` [Pentrexyl ®], the “hydrolysis rate symbol, (Vmax/V0)-1” value in data set [7] was “+ (0.1-1)”. In addition, the “hydrolysis rate symbol, (Vmax/V0)-1” value in data set [2] is “+++ (10-100)”. In addition, in data set [3], the “hydrolysis rate symbol, (Vmax/V0)-1” value is “++ (1-10)”. In addition, in [4] (setting [10]), the “Accuracy <> (average)” value was found to be 112%, the “[Meropenem] <> (average)” value came to 1.3 mg/L, the “Accuracy Replicate 1” value is given as 122% and the “[Meropenem] Replicate 1” value amounted to 1.4 mg/L. In addition, in [4] (setting [10]), the “Accuracy Replicate 2” value was 112%, the “[Meropenem] Replicate 2” value was determined as 1.3 mg/L, the “Accuracy Replicate 3” value amounted to 110% and the “[Meropenem] Replicate 3” value was determined as 1.3 mg/L. Besides, in [4] (setting [10]), the “Accuracy Replicate 4” value turned out to be 109%, the “[Meropenem] Replicate 4” value was 1.3 mg/L, the “Accuracy Replicate 5” value is 108% and the “[Meropenem] Replicate 5” value worked out at 1.3 mg/L. Besides, in [4] (setting [11]), the “Accuracy <> (average)” value worked out at 95%, the “[Meropenem] <> (average)” value stood at 21.1 mg/L, the “Accuracy Replicate 1” value came to 92% and the “[Meropenem] Replicate 1” value was determined as 20.5 mg/L. For the same molecule, in [4] (setting [11]), the “Accuracy Replicate 2” value is given as 93%, the “[Meropenem] Replicate 2” value came to 20.8 mg/L, the “Accuracy Replicate 3” value is 96% and the “[Meropenem] Replicate 3” value worked out at 21.4 mg/L. In data set [4] (setting [11]), the “Accuracy Replicate 4” value was found to be 95%, the “[Meropenem] Replicate 4” value was 21.3 mg/L, the “Accuracy Replicate 5” value was 98% and the “[Meropenem] Replicate 5” value is 21.8 mg/L.

B1: Ndm1: class B beta-lactamase screened (protein, UniProt C7C422 29-270, looked up)
Metallo-beta-lactamase type 2: GEIRPTIGQQMETGDQRFGDLVFRQLAPNVWQHTSYLDMPGFGAVASNGLIVRDGGRVLVVDTAWTDDQTAQILNWIKQEINLPVALAVVTHAHQDKMGGMDALHAAGIATYANALSNQLAPQEGMVAAQHSLTFAANGWVEPATAPNFGPLKVFYPGPGHTSDNITVGIDGTDIAFGGCLIKDSKAKSLGNLGDADTEHYAASARAFGAAFPKASMIVMSHSAPDSRAAITHTARMADKLR
As for B1, the “Activity loss in 1 h” value in [9] was 0%.

B2: Oxa48: beta-lactamase class D OXA-48 from Klebsiella pneumoniae, used as biosensor (protein, listed as Klebsiella pneumoniae)
chain: MRVLALSAVFLVASIIGMPAVAKEWQENKSWNAHFTEHKSQGVVVLWNENKQQGFTNNLKRANQAFLPASTFKIPNSLIALDLGVVKDEHQVFKWDGQTRDIATWNRDHNLITAMKYSVVPVYQEFARQIGEARMSKMLHAFDYGNEDISGNVDSFWLDGGIRISATEQISFLRKLYHNKLHVSERSQRIVKQAMLTEANGDYIIRAKTGYSTRIEPKIGWWVGWVELDDNVWFFAMNMDMPTSDGLGLRQAITKEVLKQEKIIP
modifications: PEPTIDE (1)..(22) SIGNAL PEPTIDE
notes: beta-lactamase class D OXA-48 from Klebsiella pneumoniae, used as biosensor
With B2, the “Activity loss in 1 h” value in data set [9] is listed as 0%.

B3: Kpc2: class A beta-lactamase screened (protein, UniProt Q9F663 25-293, looked up)
Carbapenem-hydrolyzing …: LTNLVAEPFAKLEQDFGGSIGVYAMDTGSGATVSYRAEERFPLCSSFKGFLAAAVLARSQQQAGLLDTPIRYGKNALVPWSPISEKYLTTGMTVAELSAAAVQYSDNAAANLLLKELGGPAGLTAFMRSIGDTTFRLDRWELELNSAIPGDARDTSSPRAVTESLQKLTLGSALAAPQRQQFVDWLKGNTTGNHRIRAAVPADWAVGDKTGTCGVYGTANDYAVVWPTGRAPIVLAVYTRAPNKDDKHSEAVIAAAARLALEGLGVNGQ
Take B3: in data set [9], the “Activity loss in 1 h” value stood at 2%.

Values taken from US20220317138A1, “METHODS FOR DETERMINING THE CONCENTRATION OF A CARBAPENEM ANTIBIOTIC IN A BIOLOGICAL SAMPLE” (priority 2019, published 2022).
